Source: ChEMBL document CHEMBL1201861, “Genomics of Drug Sensitity in Cancer screening data, Wellcome Trust Sanger Institute”

How the values were obtained:
Assay in all cases: cells
D-502MG = assay type: functional, cell-based; settings: Homo sapiens
Description: SANGER: Inhibition of human D-502MG cell growth in a cell viability assay.

DJM-1 = assay type: functional, cell-based; settings: Homo sapiens;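 note: growth inhibition of human DJM-1 cells, read out by a cell viability assay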
Description: SANGER: Inhibition of human DJM-1 cell growth in a cell viability assay.

EKVX = assay type: functional, cell-based; settings: Homo sapiens;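 note: growth inhibition of human EKVX cells, read out with a cell viability assay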
Description: SANGER: Inhibition of human EKVX cell growth in a cell viability assay.

ES4 = assay type: functional, cell-based; settings: Homo sapiens;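 note: growth inhibition of human ES4 cells, read out by a cell viability assay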
Description: SANGER: Inhibition of human ES4 cell growth in a cell viability assay.

ES5 = assay type: functional, cell-based; settings: Homo sapiens;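 note: growth inhibition of human ES5 cells, read out by a cell viability assay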
Description: SANGER: Inhibition of human ES5 cell growth in a cell viability assay.

ES6 = assay type: functional, cell-based; settings: Homo sapiens;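 note: growth inhibition of human ES6 cells, read out with a cell viability assay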
Description: SANGER: Inhibition of human ES6 cell growth in a cell viability assay.

EW-13 = assay type: functional, cell-based; settings: Homo sapiens;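 note: growth inhibition of EW-13 cells, read out with a cell viability assay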
Description: SANGER: Inhibition of human EW-13 cell growth in a cell viability assay.

GI-1 = assay type: functional, cell-based; settings: Homo sapiens;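 note: growth inhibition of human GI-1 cells, measured with a cell viability readout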
Description: SANGER: Inhibition of human GI-1 cell growth in a cell viability assay.

HAL-01 = assay type: functional, cell-based; settings: Homo sapiens;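 note: growth inhibition of human HAL-01 cells, read out with a cell viability assay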
Description: SANGER: Inhibition of human HAL-01 cell growth in a cell viability assay.

HCC1187 = assay type: functional, cell-based; settings: Homo sapiens;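 note: growth inhibition of HCC1187 cells, read out with a cell viability assay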
Description: SANGER: Inhibition of human HCC1187 cell growth in a cell viability assay.

HCC2218 = assay type: functional, cell-based; settings: Homo sapiens;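 note: cell viability assay read-out, with IC50 given as the concentration that inhibits growth of the cell line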
Description: SANGER: Inhibition of human HCC2218 cell growth in a cell viability assay.

HDLM-2 = assay type: functional, cell-based; settings: Homo sapiens;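 note: cell viability assay measuring suppression of HDLM-2 proliferation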
Description: SANGER: Inhibition of human HDLM-2 cell growth in a cell viability assay.

HOP-62 = assay type: functional, cell-based; settings: Homo sapiens;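 note: cell growth inhibition determined with a viability assay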
Description: SANGER: Inhibition of human HOP-62 cell growth in a cell viability assay.

HOS = assay type: functional, cell-based; settings: Homo sapiens;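 note: growth inhibition of human HOS cells, read out with a cell viability assay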
Description: SANGER: Inhibition of human HOS cell growth in a cell viability assay.

JVM-2 = assay type: functional, cell-based; settings: Homo sapiens;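 note: growth inhibition of JVM-2 cells determined by a cell viability assay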
Description: SANGER: Inhibition of human JVM-2 cell growth in a cell viability assay.

JVM-3 = assay type: functional, cell-based; settings: Homo sapiens;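 note: growth inhibition of human JVM-3 cells, read out with a cell viability assay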
Description: SANGER: Inhibition of human JVM-3 cell growth in a cell viability assay.

KARPAS-299 = assay type: functional, cell-based; settings: Homo sapiens
Description: SANGER: Inhibition of human KARPAS-299 cell growth in a cell viability assay.

KARPAS-45 = assay type: functional, cell-based; settings: Homo sapiens;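 note: inhibition of cell line growth, read out through a viability assay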
Description: SANGER: Inhibition of human KARPAS-45 cell growth in a cell viability assay.

KG-1 = assay type: functional, cell-based; settings: Homo sapiens;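 note: growth inhibition of KG-1 cells, read out by a cell viability assay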
Description: SANGER: Inhibition of human KG-1 cell growth in a cell viability assay.

KM-H2 = assay type: functional, cell-based; settings: Homo sapiens;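 note: growth inhibition of KM-H2 cells, read out by a cell viability assay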
Description: SANGER: Inhibition of human KM-H2 cell growth in a cell viability assay.

KNS-81-FD = assay type: functional, cell-based; settings: Homo sapiens;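 note: growth inhibition of KNS-81-FD cells, read out with a cell viability assay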
Description: SANGER: Inhibition of human KNS-81-FD cell growth in a cell viability assay.

LB1047-RCC = assay type: functional, cell-based; settings: Homo sapiens;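 note: inhibition of cell growth, determined with a cell viability assay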
Description: SANGER: Inhibition of human LB1047-RCC cell growth in a cell viability assay.

LB2518-MEL = assay type: functional, cell-based; settings: Homo sapiens;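 note: growth inhibition of human LB2518-MEL cells, measured with a cell viability assay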
Description: SANGER: Inhibition of human LB2518-MEL cell growth in a cell viability assay.

LC-1F = assay type: functional, cell-based; settings: Homo sapiens;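 note: growth inhibition of human LC-1F cells, read out with a cell viability assay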
Description: SANGER: Inhibition of human LC-1F cell growth in a cell viability assay.

MC-CAR = assay type: functional, cell-based; settings: Homo sapiens;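 note: growth inhibition of the human MC-CAR cell line, read out by a cell viability assay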
Description: SANGER: Inhibition of human MC-CAR cell growth in a cell viability assay.

MDA-MB-134-VI = assay type: functional, cell-based; settings: Homo sapiens
Description: SANGER: Inhibition of human MDA-MB-134-VI cell growth in a cell viability assay.

MHH-PREB-1 = assay type: functional, cell-based; settings: Homo sapiens;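 note: cell viability assay measuring inhibition of proliferation of human MHH-PREB-1 cells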
Description: SANGER: Inhibition of human MHH-PREB-1 cell growth in a cell viability assay.

MMAC-SF = assay type: functional, cell-based; settings: Homo sapiens;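 note: growth inhibition of human MMAC-SF cells, read out with a cell viability assay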
Description: SANGER: Inhibition of human MMAC-SF cell growth in a cell viability assay.

MOLT-16 = assay type: functional, cell-based; settings: Homo sapiens;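 note: growth inhibition of human MOLT-16 cells, read out with a cell viability assay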
Description: SANGER: Inhibition of human MOLT-16 cell growth in a cell viability assay.

MeWo = assay type: functional, cell-based; settings: Homo sapiens;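 note: growth inhibition of MeWo cells, determined by a cell viability readout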
Description: SANGER: Inhibition of human Mewo cell growth in a cell viability assay.

NB13 = assay type: functional, cell-based; settings: Homo sapiens;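 note: cell viability readout measuring growth inhibition of human NB13 cells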
Description: SANGER: Inhibition of human NB13 cell growth in a cell viability assay.

NB69 = assay type: functional, cell-based; settings: Homo sapiens;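 note: growth inhibition of NB69 cells, determined by a cell viability assay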
Description: SANGER: Inhibition of human NB69 cell growth in a cell viability assay.

NCI-H1304 = assay type: functional, cell-based; settings: Homo sapiens;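 note: growth inhibition of the cancer cell line, measured in a cell viability assay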
Description: SANGER: Inhibition of human NCI-H1304 cell growth in a cell viability assay.

NCI-H1395 = assay type: functional, cell-based; settings: Homo sapiens;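 note: cell viability assay read-out quantifying reduced proliferation of human NCI-H1395 cells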
Description: SANGER: Inhibition of human NCI-H1395 cell growth in a cell viability assay.

NCI-H1563 = assay type: functional, cell-based; settings: Homo sapiens;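 note: growth inhibition of human NCI-H1563 cells, read out with a cell viability assay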
Description: SANGER: Inhibition of human NCI-H1563 cell growth in a cell viability assay.

NCI-H1581 = assay type: functional, cell-based; settings: Homo sapiens;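 note: cell growth inhibition read out by a viability assay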
Description: SANGER: Inhibition of human NCI-H1581 cell growth in a cell viability assay.

NCI-H1650 = assay type: functional, cell-based; settings: Homo sapiens;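 note: growth inhibition of human NCI-H1650 cells measured by a cell viability assay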
Description: SANGER: Inhibition of human NCI-H1650 cell growth in a cell viability assay.

NCI-H1693 = assay type: functional, cell-based; settings: Homo sapiens;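 note: growth inhibition of the human cell line, read out with a cell viability assay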
Description: SANGER: Inhibition of human NCI-H1693 cell growth in a cell viability assay.

NCI-H1838 = assay type: functional, cell-based; settings: Homo sapiens;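 note: growth inhibition of NCI-H1838 cells, determined with a cell viability readout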
Description: SANGER: Inhibition of human NCI-H1838 cell growth in a cell viability assay.

NCI-H2196 = assay type: functional, cell-based; settings: Homo sapiens;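 note: cell viability assay used as the readout of growth inhibition in NCI-H2196 cells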
Description: SANGER: Inhibition of human NCI-H2196 cell growth in a cell viability assay.

OMC-1 = assay type: functional, cell-based; settings: Homo sapiens;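 note: growth inhibition of the OMC-1 cell line, measured by a cell viability assay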
Description: SANGER: Inhibition of human OMC-1 cell growth in a cell viability assay.

RCC10RGB = assay type: functional, cell-based; settings: Homo sapiens;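 note: growth inhibition of human RCC10RGB cells, read out by a cell viability assay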
Description: SANGER: Inhibition of human RCC10RGB cell growth in a cell viability assay.

RPMI-8226 = assay type: functional, cell-based; settings: Homo sapiens
Description: SANGER: Inhibition of human RPMI-8226 cell growth in a cell viability assay.

RPMI-8866 = assay type: functional, cell-based; settings: Homo sapiens
Description: SANGER: Inhibition of human RPMI-8866 cell growth in a cell viability assay.

Ramos-2G6-4C10 = assay type: functional, cell-based; settings: Homo sapiens;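 note: growth inhibition of the cell line, measured by a cell viability read-out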
Description: SANGER: Inhibition of human Ramos-2G6-4C10 cell growth in a cell viability assay.

SCC-3 = assay type: functional, cell-based; settings: Homo sapiens;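 note: cell viability assay measuring inhibition of SCC-3 cell growth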
Description: SANGER: Inhibition of human SCC-3 cell growth in a cell viability assay.

SCH = assay type: functional, cell-based; settings: Homo sapiens;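 note: growth inhibition of human SCH cells, read out in a cell viability assay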
Description: SANGER: Inhibition of human SCH cell growth in a cell viability assay.

SF-539 = assay type: functional, cell-based; settings: Homo sapiens;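 note: Read-out is a cell viability assay, with IC50 reflecting inhibition of cell growth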
Description: SANGER: Inhibition of human SF539 cell growth in a cell viability assay.

SK-LMS-1 = assay type: functional, cell-based; settings: Homo sapiens;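 note: growth inhibition of human SK-LMS-1 cells, read out with a cell viability assay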
Description: SANGER: Inhibition of human SK-LMS-1 cell growth in a cell viability assay.

SK-MEL-1 = assay type: functional, cell-based; settings: Homo sapiens;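 note: growth inhibition of human SK-MEL-1 cells, read out by a cell viability assay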
Description: SANGER: Inhibition of human SK-MEL-1 cell growth in a cell viability assay.

SK-N-DZ = assay type: functional, cell-based; settings: Homo sapiens;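 note: growth inhibition of the cancer cell line, read out through a viability assay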
Description: SANGER: Inhibition of human SK-N-DZ cell growth in a cell viability assay.

SK-NEP-1 = assay type: functional, cell-based; settings: Homo sapiens;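 note: growth inhibition of human SK-NEP-1 cells, read out by a cell viability assay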
Description: SANGER: Inhibition of human SK-NEP-1 cell growth in a cell viability assay.

SK-UT-1 = assay type: functional, cell-based; settings: Homo sapiens;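 note: growth inhibition of SK-UT-1 cells, measured by a cell viability assay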
Description: SANGER: Inhibition of human SK-UT-1 cell growth in a cell viability assay.

SW-620 = assay type: functional, cell-based; settings: Homo sapiens;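 note: growth inhibition of human SW-620 cells, measured by a cell viability assay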
Description: SANGER: Inhibition of human SW620 cell growth in a cell viability assay.

697 = assay type: functional, cell-based; settings: Homo sapiens
Description: SANGER: Inhibition of human 697 cell growth in a cell viability assay.

A4-Fuk = assay type: functional, cell-based; settings: Homo sapiens
Description: SANGER: Inhibition of human A4-Fuk cell growth in a cell viability assay.

A498 = assay type: functional, cell-based; settings: Homo sapiens
Description: SANGER: Inhibition of human A498 cell growth in a cell viability assay.

ATN-1 = assay type: functional, cell-based; settings: Homo sapiens
Description: SANGER: Inhibition of human ATN-1 cell growth in a cell viability assay.

BB65-RCC = assay type: functional, cell-based; settings: Homo sapiens
Description: SANGER: Inhibition of human BB65-RCC cell growth in a cell viability assay.

BV-173 = assay type: functional, cell-based; settings: Homo sapiens
Description: SANGER: Inhibition of human BV-173 cell growth in a cell viability assay.

Becker = assay type: functional, cell-based; settings: Homo sapiens
Description: SANGER: Inhibition of human Becker cell growth in a cell viability assay.

CAL-12T = assay type: functional, cell-based, Homo sapiens; settings: Homo sapiens, CAL-12T
Description: SANGER: Inhibition of human CAL-12T cell growth in a cell viability assay.

TE-8 = assay type: functional, cell-based; settings: Homo sapiens
Description: SANGER: Inhibition of human TE-8 cell growth in a cell viability assay.

TGBC1TKB = assay type: functional, cell-based; settings: Homo sapiens
Description: SANGER: Inhibition of human TGBC1TKB cell growth in a cell viability assay.

TGBC24TKB = assay type: functional, cell-based; settings: Homo sapiens
Description: SANGER: Inhibition of human TGBC24TKB cell growth in a cell viability assay.

Measured: IC50

C/C(O)=C(\C#N)C(=O)Nc1cc(Br)ccc1Br
> 16 µM: all assays above

CC(O)(CS(=O)(=O)c1ccc(F)cc1)C(=O)Nc1ccc(C#N)c(C(F)(F)F)c1 (stereo not given) [BICALUTAMIDE]
> 1.02 µM: all assays above
